Test results: US8877163B2, “Cycloalkyl triamine pentacarboxylate as ligands for paramagnetic metal complexes” (Kaohsiung Medical University, priority 2006, dated 2014)
Like-named read-outs stand apart in the source and are kept apart here. Blank lines part the entries; values can stand above or below the compound they belong to.

Legend:
[1] = Stability constants of the calcium complex by potentiometric titration (BEST program); assay type: physicochemical
Source text: (§1) Presently, there are two ways for calculating the thermodynamic stability constant of a metal complex by the potentiometric titration. […] The second method is suitable for the metal complex whose disassociation rate is less than 25% at low pH (such as pH 2). Take the metal complex of the present invention for instance, since it is not able to form a complex with the ligand at a pH value around 2, the thermodynamic stability constant thereof must be calculated by the previous method. The equation for the thermodynamic stability constant is defined as follows: [formula] where M represents the metal ion, L represents the ligand, and ML represents the metal complex. […] The thermodynamic stability constants for the metal complexes with CB-TTDA are determined from the titration data with the FORTRAN computer program BEST as shown in Table 2 with the reported thermodynamic stability constants of TTDA and DTPA, which are respectively reported by Y M. Wang et al., Inorganic Chemistry, vol. 44, page 382, 2005 and by P. Caravan et al., Inorganic Chemistry, vol. 44, page 2170, 2001. The conditional stability constant (Kcond) specifies the degree of metal chelation at a given pH and is defined as follows: […] [formula] where LT is the total concentration of the uncomplexed ligand, which is defined by the following equation: […]

[2] = Stability constants of the gadolinium complex by potentiometric titration (BEST program); assay type: physicochemical
Source text: as §1

[3] = Stability constants of the copper complex by potentiometric titration (BEST program); assay type: physicochemical
Source text: as §1

[4] = Protonation constants by potentiometric titration (PKAS program); assay type: physicochemical; details: for ΣpKa: sum of the four protonation constants
Procedure: Firstly, the ligands (HnL) are deprotoned (L^n−) by treating them with the alkaline solution. After that, a slow addition of the acidic solution for associating the deprotonated ligand with the protons (H^+) is performed, and thus protonated organic ligands are formed. The equation for the protonation constant is shown as follows:
Please refer to FIG. 2, which is a potentiometric titration curve for CB-TTDA (the ionic strength I=0.1 M Me4NCl and the temperature T=25.0±0.1° C.) measured by an automatic titrator system. The protonation constants for the CB-TTDA are determined from the titration data with the FORTRAN computer program PKAS as shown in Table 1.

[5] = Stability constants of the zinc complex by potentiometric titration (BEST program); assay type: physicochemical
Source text: as §1

[6] = Selectivity constant and modified selectivity constant of the gadolinium complex; assay type: physicochemical
Source text: The selectivity constant is used only for showing the difference between the gadolinium complex and other metal complexes. However, due to the coexistence of the zinc ion, the calcium ion and the copper ion in vivo, all the following factors, which are the pH value, the protonation constant for the ligand, the concentrations of the metal ions (Zn^2+, Ca^2+, Cu^2+) and the stability constants for Gd^3+, Zn^2+, Ca^2+ and Cu^2+ complexes should be considered for obtaining the selectivity constant with a new definition, called modified selectivity constant (Ksel′) and defined by the following equation: Ksel′=Ktherm(αH^−1+αCaL^−1+αCuL^−1+αZnL^−1)^−1, where αH^−1=1+K1^H[H^+]+K1^HK2^H [H^+]^++ . . .; αCaL^−1=1+KCaL[Ca^2+]; αCuL^−1=1+KCuL[Cu^2+]; αZnL^−1=1+KZnL[Zn^2+]; and thus the modified selectivity constant of the gadolinium complex at the biological pH (7.4) could be calculated by the mentioned equation (the value of the conditional stability constant is calculated previously, and the concentrations of the zinc, the calcium and the copper ions are 50 μM, […] and 1 μm, respectively).

[7] = reported values; cited from earlier work
[8] = I = 0.1 M Me4NCl, T = 25.0 ± 0.1° C.; reported values; cited from earlier work
[9] = I = 0.1 M Me4NCl, T = 25.0 ± 0.1° C.; reported values; cited from earlier work; remark: listed apart in the source
[10] = I = 0.1 M Me4NCl, T = 25.0 ± 0.1° C.; reported values; cited from earlier work; remark: listed apart in the source
[11] = I = 0.1 M Me4NCl, T = 25.0 ± 0.1° C.; reported values; cited from earlier work; remark: listed apart in the source
human serum albumin = human serum albumin (Homo sapiens, UniProt P02768); details: cited from earlier work; for relaxivity for the combination with human serum albumin: bound to human serum albumin
human serum albumin, sequence (P02768 25-609): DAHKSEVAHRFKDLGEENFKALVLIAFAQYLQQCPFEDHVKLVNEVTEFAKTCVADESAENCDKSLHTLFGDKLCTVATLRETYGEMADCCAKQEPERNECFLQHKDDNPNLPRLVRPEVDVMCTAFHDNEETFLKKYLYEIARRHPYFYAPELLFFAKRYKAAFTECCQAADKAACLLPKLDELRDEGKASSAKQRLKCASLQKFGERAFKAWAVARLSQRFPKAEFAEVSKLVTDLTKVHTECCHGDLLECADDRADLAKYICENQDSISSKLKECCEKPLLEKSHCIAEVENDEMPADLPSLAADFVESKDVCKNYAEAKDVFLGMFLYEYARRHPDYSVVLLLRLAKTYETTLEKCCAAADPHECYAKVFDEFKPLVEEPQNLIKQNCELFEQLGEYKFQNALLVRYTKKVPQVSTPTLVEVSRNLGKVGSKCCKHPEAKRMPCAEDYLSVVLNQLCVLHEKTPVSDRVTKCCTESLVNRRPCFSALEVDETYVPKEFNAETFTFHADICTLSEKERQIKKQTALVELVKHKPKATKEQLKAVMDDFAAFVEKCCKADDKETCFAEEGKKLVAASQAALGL

[12] = Dy (III)-induced 17O-NMR water shift (d.i.s.), number of inner space water molecules; assay type: physicochemical
Source text: From measuring the d.i.s. (Dy (III)-induced ^17O-NMR water shifts) of the ^17O nuclides in water induced by Dy (III) via ^17O-NMR and graphing the concentration of Dy (III) complexes with respect to the d.i.s., a linear relationship is found, as shown in the following equation: d.i.s.=qΔ[Dy(ligand)n(H2O)q/[H2O]
The slope is qΔ/[H2O] with q being the number of inner space water molecule. […] Because the Dy (III) hydrate is able to combine with 8 water molecules and is in direct proportion to the slope, the value of q (q=0.9) for [Dy(CB-TTDA)]^2− is obtained thereby.

[13] = incubation with zinc (II) for three days; 20 MHz, 37.0 ± 0.1° C.; reported by S. Laurent et al; cited from earlier work
[14] = after removal of the galactopyranoside by β-gal; cited from earlier work
[15] = cited from earlier work
[16] = 20 MHz, 37.0 ± 0.1° C., cited from earlier work
[17] = I = 0.1 M Me4NCl, T = 25.0 ± 0.1° C.

log KML [CaL]/[Ca][L] [1, 17]: 9.52
SMILES: O=C([O-])CN(CC(=O)[O-])CC1(CN(CCN(CC(=O)O)CC(=O)O)CC(=O)O)CCC1.[Ca+2] [[Ca(CB-TTDA)]^3−]

log KML [GdL]/[Gd][L] (thermodynamic stability constant) [2]: 20.28(0.03)
pGd [2]: 15.82
pCa [1]: 4.09
log KCaHL [1, 17]: 6.24(0.02)
log KML [CaL]/[Ca][L] [1, 17]: 9.52(0.02)
log KCaL (pH = 7.4) (conditional stability constant) [1]: 4.06
pCu [3]: 13.26
log KCuHL [3, 17]: 5.29(0.03)
log KML [CuL]/[Cu][L] [3, 17]: 17.71(0.02)
log KCuL (pH = 7.4) (conditional stability constant) [3]: 12.25
log Kn^H [H4L]/[H3L][H] [4, 17]: 3.11(0.04)
log Kn^H [HL]/[L][H] [4, 17]: 11.08(0.03)
ΣpKa [4]: 28.59
pZn [5]: 12.41
log KML [ZnL]/[Zn][L] [5, 17]: 16.06(0.03)
log KZnHL [5, 17]: 8.13(0.04)
log KZnL (pH = 7.4) (conditional stability constant) [5]: 10.60
log K(Gd/Ca) (selectivity constant) [6]: 11.76
log K(Gd/Cu) (selectivity constant) [6]: 2.57
log K(Gd/Zn) (selectivity constant) [6]: 4.22
SMILES: O=C(O)CN(CCN(CC(=O)O)CC1(CN(CC(=O)O)CC(=O)O)CCC1)CC(=O)O [CB-TTDA, 6-carboxymethyl-3-{{[1-(N,N-dicarboxymethyl)-2-aminomethyl]-cyclobut-1-yl}-methyl}-3,6-diazaoctanedioic acid]

pGd [2]: 19.14
pCa [1]: 7.46
log KCaL (pH = 7.4) (conditional stability constant) [1]: 6.43
pCu [3]: 18.06
log KCuL (pH = 7.4) (conditional stability constant) [3]: 17.00
ΣpKa [4]: 26.01
pZn [5]: 15.39
log KZnL (pH = 7.4) (conditional stability constant) [5]: 14.38
log K(Gd/Ca) (selectivity constant) [6]: 11.71
log K(Gd/Cu) (selectivity constant) [6]: 1.08
log K(Gd/Zn) (selectivity constant) [6]: 3.76
SMILES: O=C(O)CN(CCN(CC(=O)O)CC(=O)O)CCN(CC(=O)O)CC(=O)O [DTPA]
log Kn^H [H2L]/[HL][H] [7]: 8.60
log Kn^H [H3L]/[H2L][H] [7]: 4.28
log Kn^H [H4L]/[H3L][H] [7]: 2.64
log Kn^H [HL]/[L][H] [7]: 10.49
log KML [ZnL]/[Zn][L] [8]: 18.70
log KZnHL [8]: 5.60
log KCuHL [9]: 4.81
log KML [CuL]/[Cu][L] [9]: 21.38
log KCaHL [10]: 6.11
log KML [CaL]/[Ca][L] [10]: 10.75
log KML [GdL]/[Gd][L] (thermodynamic stability constant) [11]: 22.46

SMILES: O=C([O-])CN(CCN(CC(=O)[O-])C[C@H](COP(=O)([O-])OC1CCC(c2ccccc2)(c2ccccc2)CC1)N(CC(=O)[O-])CC(=O)[O-])CC(=O)[O-].[Gd+3].[H+].[H+].[H+] [MS-325]
bound relaxivity r1^b (human serum albumin; bound to HSA): 47.0 mM⁻¹ s⁻¹
relaxivity for the combination with human serum albumin (human serum albumin): 47.0 mM⁻¹ s⁻¹
binding constant with HSA, KA (human serum albumin): 3.0±0.2×10^4 M^−1

slope of d.i.s. versus concentration of Dy (III) complex ([12]; 17O-NMR): −48.2 ppm/mM
q, number of inner space water molecule ([12]; from slope relative to Dy (III) hydrate with 8 water molecules): 0.9
SMILES: O=C([O-])CN(CCN(CC(=O)[O-])CC1(CN(CC(=O)[O-])CC(=O)[O-])CCC1)CC(=O)[O-].[Dy+3] [[Dy(CB-TTDA)]^2−]

SMILES: CNC(=O)CN(CCN(CCN(CC(=O)[O-])CC(=O)NC)CC(=O)[O-])CC(=O)[O-].[Gd+3] [[Gd(DTPA-BMA)], bis-methylamide gadodiamide injection]
R1^p (t = 3days)/R1^p (t = 0 days) [13]: 9%

SMILES: O=C([O-])CN1CCN(CCO[C@@H]2O[C@H](CO)[C@H](O)[C@H](O)[C@H]2O)CCN(CC(=O)[O-])CCN(CC(=O)[O-])CC1.[Gd+3] [Egad, 4,7,10-tri(aceticacid)-1-(2-β-galactopyranosylethoxy)-1,4,7,10-tetraazacyclododecane gadolinium (III)]
number of inner space water molecules after hydrolysis by β-galactosidase [14]: 1.2

pGd [2]: 15.25
pCa [1]: 6.28
log KCaL (pH = 7.4) (conditional stability constant) [1]: 4.42
pCu [3]: 13.06
log KCuL (pH = 7.4) (conditional stability constant) [3]: 12.06
ΣpKa [4]: 27.44
pZn [5]: 12.86
log KZnL (pH = 7.4) (conditional stability constant) [5]: 11.32
log K(Gd/Ca) (selectivity constant) [6]: 9.83
log K(Gd/Cu) (selectivity constant) [6]: 2.19
log K(Gd/Zn) (selectivity constant) [6]: 2.93
SMILES: O=C(O)CN(CCCN(CC(=O)O)CC(=O)O)CCN(CC(=O)O)CC(=O)O [TTDA, 3,6,10-tri-(carboxymethyl)-3,6,10-triazadodecanedioic acid]
log Kn^H [H2L]/[HL][H] [7]: 8.92
log Kn^H [H3L]/[H2L][H] [7]: 5.12
log Kn^H [H4L]/[H3L][H] [7]: 2.80
log Kn^H [HL]/[L][H] [7]: 10.60
log KML [ZnL]/[Zn][L] [8]: 16.03
log KZnHL [8]: 7.80
log KCuHL [9]: 5.69
log KML [CuL]/[Cu][L] [9]: 16.77
log KCaHL [10]: 8.20
log KML [CaL]/[Ca][L] [10]: 9.13
log KML [GdL]/[Gd][L] (thermodynamic stability constant) [11]: 18.96

SMILES: CNC[C@H](O)[C@@H](O)[C@H](O)[C@H](O)CO.CNC[C@H](O)[C@@H](O)[C@H](O)[C@H](O)CO.O=C([O-])CN(CCN(CC(=O)[O-])CC(=O)O)CCN(CC(=O)O)C(COCc1ccccc1)C(=O)[O-].[Gd+3] (stereo not shown) [[Gd(BOPTA)]^2−, gadobenate dimeglumine]
relaxivity ([15]; Fulvio U. et al., 1995): 4.39 mM⁻¹ s⁻¹

SMILES: CC1(N(CC(=O)[O-])CC(=O)[O-])CN(CC(=O)[O-])CCN(CC(=O)[O-])C1.[Gd+3] [[Gd(AAZTA)]^−]
relaxivity ([15]; 20 MHz and 298 K): 7.1 mM⁻¹ s⁻¹
relaxivity calculated by simulating the NMRD profile ([15]; τr increased to 30 ns): 100 mM⁻¹ s⁻¹

log KML [ZnL]/[Zn][L] [5, 17]: 16.06
SMILES: O=C([O-])CN(CC(=O)[O-])CC1(CN(CCN(CC(=O)O)CC(=O)O)CC(=O)O)CCC1.[Zn+2] [[Zn(CB-TTDA)]^3−]

log KML [CuL]/[Cu][L] [3, 17]: 17.71
SMILES: O=C([O-])CN(CCN(CC(=O)[O-])CC1(CN(CC(=O)[O-])CC(=O)[O-])CCC1)CC(=O)[O-].[Cu+2] [[Cu(CB-TTDA)]^3−]

calculated conditional stability constant of the gadolinium complex [2]: 14.25
SMILES: O=C([O-])CN(CCCN(CC(=O)[O-])CC(=O)[O-])CCN(CC(=O)[O-])CC(=O)[O-].[Gd+3] [[Gd(TTDA)]^2−]
relaxivity r1 ([16]; pH 7.5 ± 0.1, Y. M. Wang et al.): 3.85 ± 0.03 mM⁻¹ s⁻¹

calculated conditional stability constant of the gadolinium complex ([2]; pH = 7.4): 18.14
SMILES: CNC[C@H](O)[C@@H](O)[C@H](O)[C@H](O)CO.CNC[C@H](O)[C@@H](O)[C@H](O)[C@H](O)CO.O=C([O-])CN(CCN(CC(=O)[O-])CC(=O)O)CCN(CC(=O)[O-])CC(=O)O.[Gd+3] [[Gd(DTPA)]^2−, gadopentetate dimeglumine]
relaxivity r1 ([16]; pH 7.6 ± 0.1, P. Caravan et al.): 3.89 ± 0.03 mM⁻¹ s⁻¹
R1^p (t = 3days)/R1^p (t = 0 days) [13]: 49.79%
relaxivity ([15]; 20 MHz and 298 K): 3.89 mM⁻¹ s⁻¹
relaxivity ([15]; Fulvio U. et al., 1995): 3.77 mM⁻¹ s⁻¹
relaxivity for the combination with human serum albumin (human serum albumin): 33.0 mM⁻¹ s⁻¹
